US20020028258A1, “Immunostimulant compositions and associated methods” (Pharmanex, LLC, priority 2000, published 2002)

Assays:
Assay type in all cases: cell-based, human
Conditions in all cases: 50 ng/ml
[1] = tested on: CD4+ immune cells; test: Immune Cell Stimulation Assay Method (CD69 expression, flow cytometry), CD4+
Protocol: (§1) Each immunostimulation assay uses a Becton Dickinson FACScan flow cytometer to quantify immune cell activity. The specific protocol for measuring such activity utilizes freshly drawn human blood collected in sodium heparin to 200 μL. Echinacea extract is added in a desired concentration after being mixed with 50 μL of phosphate buffer. The blood and Echinacea mixture is vortexed and incubated at 37° C. for 5 hours to allow adequate time for immune cell stimulation.
(§2) Positive controls consist of PMA (50 ng/ml), PHA ([…]), or CD2/CD2R (5 μL/250 μL) and negative controls consist of DMSO (2% in RPMI), RPMI, and cyclosporin A (10 μg/ml). For staining, 20 μL of reagent cocktail (CD4FITC/CD69PE/CD3PerCP (expressed on the helper/inducer T-lymphocyte subset and is the primary receptor for HIV); CD8FITC/CD69PE/CD3PerCP (expressed on the human suppressor/cytotoxic T-lymphocytes and on a subset of natural killer lymphocytes); CD19FITC/CD69PE/CD45PerCP (expressed on B-lymphocytes); CD56FITC/CD69PE/CD45PerCP (expressed on NK lymphocytes), for examples) are used.
Following the cell stimulation period described above, solutions of fractions and constituents are compared quantitatively with the above-recited controls. Next 50 μL of the stimulated blood samples are added to each of the tubes containing the reagent cocktail, vortexed and incubated at room temperature for 30 min. in the dark. Then 450 μL of 1× FACS lysing solution is added to each tube which is vortexed gently and incubated in the dark at room temp. for 20 min. The prepared samples are analyzed in the flow cytometer. CD69 (CD stands for cluster determinant) is the first […] expressed by any of these cells following stimulation and is produced on the surface of T-, B- and NK-lymphocytes. […] Individual cell types are quantitated using appropriate stains and gating as known by those skilled in the art.

[2] = tested on: CD8+ immune cells; test: Immune Cell Stimulation Assay Method (CD69 expression, flow cytometry), CD8+
Protocol: as §1, §2
(§3) Following the cell stimulation period described above, solutions of fractions and constituents are compared quantitatively with the above-recited controls. […] The prepared samples are analyzed in the flow cytometer. […] Individual cell types are quantitated using appropriate stains and gating as known by those skilled in the art.

[3] = tested on: CD19+ cells; test: Immune Cell Stimulation Assay Method (CD69 expression, flow cytometry), CD19+
Protocol: as §1, §2, §3

[4] = tested on: CD56+ cells; test: Immune Cell Stimulation Assay Method (CD69 expression, flow cytometry), CD56+
Protocol: as §1, §2, §3

## CCCCCCCCCCCCCC(=O)O[C@@H]1[C@@H](C)[C@@]2(O)[C@@H](C=C(CO)C[C@]3(O)C(=O)C(C)=C[C@@H]23)[C@@H]2C(C)(C)[C@]12OC(C)=O [PMA]
[1]; Table 2
  CD4+ stimulation, positive control: 99.16%
[1]; Table 3
  CD4+ stimulation, positive control: 99.16%
[1]; Table 4
  CD4+ stimulation, positive control: 99.20%
[1]; Table 7
  CD4+ stimulation, positive control: 99.42%
[1]; Table 8
  CD4+ stimulation, positive control: 98.770%
[2]; Table 7
  CD8+ stimulation, positive control: 99.04%
[2]; Table 8
  CD8+ stimulation, positive control: 98.320%
[3]; Table 7
  CD19+ stimulation, positive control: 97.68%
[3]; Table 8
  CD19+ stimulation, positive control: 98.820%
[4]; Table 7
  CD56+ stimulation, positive control: 94.14%
[4]; Table 8
  CD56+ stimulation, positive control: 94.940%
